# Patent publication US5488060A, “Substituted thiadiazoles, compositions containing them and their use as antimicrobial and marine antifouling agents” (The Dow Chemical Company, priority 1994, dated 1996)
# Read-outs that look alike come from different tables or passages of the source.
# Columns and labels:
# [1] = test system: Staphylococcus aureus (Sa); experiment: Minimum inhibitory concentration (MIC) in nutrient agar, Staphylococcus aureus; assay type: cell-based
# In short: (§1)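 Bacteria were grown 24 h at 30° C in nutrient broth with shaking, then diluted to 10^8 CFU/mL. These suspensions were stamped onto dried nutrient agar plates, neutral (pH 6.8) and alkaline (pH 8.2), that held compound at final 500–1.0 ppm. The plates were incubated 48 h at 30° C.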
# Proteus vulgaris (Pv) = experiment: Minimum inhibitory concentration (MIC) in nutrient agar, Proteus vulgaris; assay type: cell-based
# In short: as §1
# Bacillus subtilis (Bs) = experiment: Minimum inhibitory concentration (MIC) in nutrient agar, Bacillus subtilis; assay type: cell-based
# In short: as §1
# Fusarium oxysporum (Fo) = experiment: Minimum inhibitory concentration (MIC) in malt yeast agar, Fusarium oxysporum; assay type: cell-based
# In short: (§2)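 Fungal inocula from 7-day malt yeast agar cultures (30° C) were suspended in saline with octylphenoxy polyethoxy ethanol, diluted 1:9, and spotted onto malt yeast agar (pH 5.5) containing test compound at 0–500 ppm. Growth assessed after 72 hours at 30° C to give MIC.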
# [2] = test system: Pseudomonas aeruginosa (Pa); experiment: Minimum inhibitory concentration (MIC) in nutrient agar, Pseudomonas aeruginosa; assay type: cell-based; conditions: 30° C., 48 hours, read-out: Minimum Inhibitory Concentration, Pa
# In short: as §1
# [3] = test system: Saccharomyces cerevisiae (Sc); experiment: Minimum inhibitory concentration (MIC) in malt yeast agar, Saccharomyces cerevisiae; assay type: cell-based
# In short: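 Malt yeast agar pH 5.5 + cpd (from 1% soln in acetone/water) at final 500–zero ppm, poured at 48 °C, dried 24 h. Inoculum: 7-day 30 °C slants suspended in saline/octylphenoxy polyethoxy ethanol, diluted 1:9, replicator-spotted. Incubated 30 °C; read 48 h yeast, 72 h fungi.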
# Escherichia coli (Ec) = experiment: Minimum inhibitory concentration (MIC) in nutrient agar, Escherichia coli; assay type: cell-based
# In short: as §1
# [4] = test system: Aureobasidium pullulan (Ap); experiment: Minimum inhibitory concentration (MIC) in malt yeast agar, Aureobasidium pullulan; assay type: cell-based
# In short: as §2
# [5] = test system: Pseudomonas aeruginosa (PRD-10); experiment: Minimum inhibitory concentration (MIC) in nutrient agar, Pseudomonas aeruginosa PRD-10; assay type: cell-based
# In short: as §1
# marine organisms = experiment: Marine antifouling rating of coated test panels exposed to the marine environment; conditions: scale 10 (completely free of growth) to 0 (completely covered); for Marine Antifouling Rating, 6 Week Test, Top Panel / Marine Antifouling Rating, 6 Week Test, Bottom Panel: 6 weeks; for Marine Antifouling Rating, 6 Week Test, Top Panel / Marine Antifouling Rating, 10 Week Test, Top Panel: topside; for Marine Antifouling Rating, 6 Week Test, Bottom Panel / Marine Antifouling Rating, 10 Week Test, Bottom Panel: underside; for Marine Antifouling Rating, 10 Week Test, Top Panel / Marine Antifouling Rating, 10 Week Test, Bottom Panel: 10 weeks
# Protocol: Test panels are prepared from clear, rigid polyvinyl chloride film that is 0.381×10-3 m thick and has one textured surface. The test panels are 0.1524 m by 0.1524 m squares that have 0.00635 m holes punched at corners on 0.127 m centers. A 0.102 square template, with a 0.067 m diameter hole at the center, is attached to the center of the textured surface of the test panels.
# A candidate marine antifoulant compound (1.0 g) is stirred into a resinous latex binder (9.0 g). A portion of the compound/binder mixture (1.5 g) is added to the center of the test panel and uniformly spread over the circular area inside the template.
# Water is added dropwise as needed to properly spread the compound/binder mixture. The template prevents the compound/binder mixture from spreading beyond the uncovered area. […] The template is then removed. The test panel is then allowed to dry for 8 to 12 hours at room temperature.
# Two test panels are prepared for each candidate marine antifoulant compound. Two control test panels are also prepared by only treating with the resinous latex binder. One test panel of each candidate marine […] compound is attached over a white background to the topside of an exposure support apparatus. The second test panel is attached over a black background to the underside of the exposure support apparatus. The exposure support apparatus is placed horizontally 0.0254 m under a marine surface with the white background topside facing up.
# After being removed from the exposure support apparatus, each test panel is inspected and rated for marine organism growth on both the treated and untreated areas of the test panel, The marine organisms present on the treated and untreated areas are noted. The presence of algae spores and bacterial slime are noted but not included in rating each test panel. The test panels are rated on a scale from 10 (representing completely free of marine organism growth) to 0 (representing completely covered with marine organism growth).
# In addition, test panels were prepared using tributyl tin oxide, a known marine antifouling compound.
# [6] = pH 6.8, nutrient agar, 30° C., 48 hours, read-out: Minimum Inhibitory Concentration, Sa
# [7] = pH 6.8, nutrient agar, 30° C., 48 hours, read-out: Minimum Inhibitory Concentration, Pv
# [8] = 48 h, pH 8.2, read-out: Minimum Inhibitory Concentration, Bs
# [9] = pH 6.8, nutrient agar, 30° C., 48 hours, read-out: Minimum Inhibitory Concentration, Bs
# [10] = 48 h, pH 8.2, read-out: Minimum Inhibitory Concentration, PRD
Compound,"MIC [1, 6] [µg/mL]",MIC (Proteus vulgaris (Pv); [7]) [µg/mL],MIC (Bacillus subtilis (Bs); [8]) [µg/mL],MIC (Bacillus subtilis (Bs); [9]) [µg/mL],"MIC ([2]; pH 8.2, nutrient agar) [µg/mL]","MIC [5, 10] [µg/mL]","Marine Antifouling Rating, 6 Week Test, Top Panel (marine organisms)","Marine Antifouling Rating, 6 Week Test, Bottom Panel (marine organisms)","Marine Antifouling Rating, 10 Week Test, Top Panel (marine organisms)","Marine Antifouling Rating, 10 Week Test, Bottom Panel (marine organisms)",further results
"N#CSc1nsnc1-c1ccccc1 [Example I, 4-Phenyl-3-thiocyanato-1,2,5-thiadiazole]",25,50,250,< 10,> 500,> 500,7,7,4,3,"MIC ([1]; 48 h, pH 8.2, read-out: Minimum Inhibitory Concentration, Sa): 500 µg/mL; MIC (Proteus vulgaris (Pv); 48 h, pH 8.2, read-out: Minimum Inhibitory Concentration, Pv): 500 µg/mL; MIC (Fusarium oxysporum (Fo); pH 5.5, malt yeast agar, 30° C., 72 hours for fungi, read-out: Minimum Inhibitory Concentration, Fo): 2.5 µg/mL; MIC ([2]; pH 6.8, nutrient agar): > 500 µg/mL; MIC ([3]; pH 5.5, malt yeast agar, 30° C., 48 hours for yeast, read-out: Minimum Inhibitory Concentration, SC): < 1 µg/mL; MIC (Escherichia coli (Ec); 48 h, pH 6.8, read-out: Minimum Inhibitory Concentration, Ec): 50 µg/mL; MIC (Escherichia coli (Ec); 48 h, pH 8.2, read-out: Minimum Inhibitory Concentration, Ec): > 500 µg/mL; MIC ([4]; pH 5.5, malt yeast agar, 30° C., read-out: Minimum Inhibitory Concentration, Ap): < 1 µg/mL; MIC ([5]; 48 h, pH 6.8, read-out: Minimum Inhibitory Concentration, PRD): > 500 µg/mL"
"N#CSCSc1nsnc1-c1ccccc1 [Example XVI, 4-Phenyl-3-thiocyanato-methylthio-1,2,5-thiadiazole]",25,50,250,< 10,250,50,9,9,4,9,"MIC ([1]; pH 8.2, nutrient agar, 30° C., 48 hours, read-out: Minimum Inhibitory Concentration, Sa): 50 µg/mL; MIC (Proteus vulgaris (Pv); pH 8.2, nutrient agar, 30° C., 48 hours, read-out: Minimum Inhibitory Concentration, Pv): 250 µg/mL; MIC (Fusarium oxysporum (Fo); 72 h, pH 5.5, read-out: Minimum Inhibitory Concentration, Fo): 5 µg/mL; MIC ([3]; 48 h, pH 5.5, read-out: Minimum Inhibitory Concentration, SC): 2.5 µg/mL; MIC (Escherichia coli (Ec); pH 6.8, nutrient agar, 30° C., 48 hours, read-out: Minimum Inhibitory Concentration, Ec): 25 µg/mL; MIC (Escherichia coli (Ec); pH 8.2, nutrient agar, 30° C., 48 hours, read-out: Minimum Inhibitory Concentration, Ec): 250 µg/mL; MIC ([4]; pH 5.5, read-out: Minimum Inhibitory Concentration, Ap): 2.5 µg/mL; MIC ([5]; pH 6.8, nutrient agar, 30° C., 48 hours, read-out: Minimum Inhibitory Concentration, PRD): 25 µg/mL"
